Results on 19 compounds are retold here after US7517874B2 (priority 2007, dated 2009).

Each structure is given as a SMILES string. Like-named read-outs stand apart in the source and are kept apart here.

What is called EC50 is the midpoint of the concentration-response curve.

Assay [1] deals with human CB1 receptor (hCB1) (Homo sapiens, UniProt P21554). The assay can be described thus: cell-based. In kind it is cell-based. The following applies: for +/− HCB1: agonist or inverse agonist at hCB1. Summed up:
(§1)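 First, cells in IBMX-containing HEPES-buffered HBSS are raised to elevated cAMP with 2-8 μM NKH-477 for 30 min. Data are normalised to the forskolin and forskolin + 1 μM CP55,940 controls.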

In a further assay the target is T1, rat CB2 receptor (rCB2) (Rattus norvegicus, UniProt Q9QZN9).
T1 sequence (Q9QZN9 1-360): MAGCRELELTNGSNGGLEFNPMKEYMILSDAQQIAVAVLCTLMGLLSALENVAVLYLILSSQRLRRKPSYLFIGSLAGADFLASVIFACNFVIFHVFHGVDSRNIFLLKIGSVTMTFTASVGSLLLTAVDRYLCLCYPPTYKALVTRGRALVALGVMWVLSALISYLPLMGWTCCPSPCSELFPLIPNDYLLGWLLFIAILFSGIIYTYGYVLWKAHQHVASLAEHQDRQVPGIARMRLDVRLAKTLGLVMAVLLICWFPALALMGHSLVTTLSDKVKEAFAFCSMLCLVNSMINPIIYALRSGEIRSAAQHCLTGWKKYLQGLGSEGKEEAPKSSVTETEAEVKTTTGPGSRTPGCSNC
The assay can be described thus: cell-based. In kind it is cell-based. The note with it: for +/− RCB2: agonist or inverse agonist at rCB2. Summed up:
as §1

Sequence of human CB1 receptor (hCB1) (P21554 whole entry): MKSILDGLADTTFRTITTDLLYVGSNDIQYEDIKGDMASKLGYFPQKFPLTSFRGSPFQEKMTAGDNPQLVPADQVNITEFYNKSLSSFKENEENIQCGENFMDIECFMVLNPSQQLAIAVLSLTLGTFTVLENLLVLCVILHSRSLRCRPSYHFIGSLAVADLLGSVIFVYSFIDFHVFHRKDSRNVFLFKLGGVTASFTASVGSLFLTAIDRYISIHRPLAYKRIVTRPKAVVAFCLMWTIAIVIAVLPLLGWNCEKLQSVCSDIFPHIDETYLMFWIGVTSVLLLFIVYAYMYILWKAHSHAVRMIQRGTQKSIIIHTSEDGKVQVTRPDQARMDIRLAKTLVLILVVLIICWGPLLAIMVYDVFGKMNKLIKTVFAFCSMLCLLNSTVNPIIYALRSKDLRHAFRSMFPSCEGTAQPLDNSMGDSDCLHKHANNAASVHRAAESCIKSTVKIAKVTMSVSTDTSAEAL

The compound `CNC(=O)[C@@H](NC(=O)c1nc(-c2cccc(C(F)(F)F)c2)n2c1CN(C)CCC2)C(C)(C)C` [Compound 438, (S)-N-(3,3-dimethyl-1-(methylamino)-1-oxobutan-2-yl)-8-methyl-3-(3-(trifluoromethyl)phenyl)-6,7,8,9-tetrahydro-5H-imidazo[1,5-a][1,4]diazepine-1-carboxamide] registered an EC50 in assay [1] greater than 10000 nM. The “+/− RCB2” value at rat CB2 receptor (rCB2) is on record as “−”.
With `CN1CCn2c(-c3ccccc3)nc(C(=O)NCCCO)c2C1` [Compound 229, N-(3-hydroxypropyl)-7-methyl-3-phenyl-5,6,7,8-tetrahydroimidazo[1,5-a]pyrazine-1-carboxamide], the EC50 (in assay [1]; on rat CB2 receptor (rCB2)) was greater than 10000 nM each time.
In turn, `CC(C)(C)C(=O)N1CCn2c(-c3ccccc3)nc(C(=O)NC3C4(C)CCC(C4)C3(C)C)c2C1` (centres unmarked) [Compound 123, 3-phenyl-7-pivaloyl-N-(1,3,3-trimethylbicyclo[2.2.1]heptan-2-yl)-5,6,7,8-tetrahydroimidazo[1,5-a]pyrazine-1-carboxamide] had an EC50 in assay [1] greater than 10000 nM. The “+/− RCB2” value on rat CB2 receptor (rCB2) is reported as “−”.
On to `CN1CCn2c(-c3ccccc3)nc(C(=O)NC(C)(C)CO)c2C1` [Compound 230, N-(1-hydroxy-2-methylpropan-2-yl)-7-methyl-3-phenyl-5,6,7,8-tetrahydroimidazo[1,5-a]pyrazine-1-carboxamide], for which the EC50 is greater than 10000 nM in assay [1] (groups >100 nM-10 μM and >10 μM, cAMP, CHO-K1 hCB1, read-out: EC50 HCB1); greater than 10000 nM on rat CB2 receptor (rCB2) (groups >100 nM-10 μM and >10 μM, cAMP, CHO-K1 rCB2, read-out: EC50 RCB2).
For the compound `CNC(=O)[C@@H]1CCCN1C(=O)c1nc(-c2ccccc2)n2c1CN(C)CCC2` [Compound 603, (S)-N-methyl-1-(8-methyl-3-phenyl-6,7,8,9-tetrahydro-5H-imidazo[1,5-a][1,4]diazepine-1-carbonyl)pyrrolidine-2-carboxamide], the EC50 (in assay [1]; on rat CB2 receptor (rCB2)) was greater than 10000 nM each time.
With `CNC(=O)[C@@H](NC(=O)c1nc(-c2ccccc2F)n2c1CN(C)CCC2)C(C)(C)C` [Compound 353, (S)-N-(3,3-dimethyl-1-(methylamino)-1-oxobutan-2-yl)-3-(2-fluorophenyl)-8-methyl-6,7,8,9-tetrahydro-5H-imidazo[1,5-a][1,4]diazepine-1-carboxamide], the concentration giving a half-maximal response (EC50) in assay [1] is greater than 10000 nM. In addition, at rat CB2 receptor (rCB2), the “+/− RCB2” value is on record as “+”.
The corresponding values for `CNC(=O)[C@H](CC(C)C)NC(=O)c1nc(-c2cc(F)ccc2F)n2c1CN(C)CCC2` [Compound 532, (S)-3-(2,5-difluorophenyl)-8-methyl-N-(4-methyl-1-(methylamino)-1-oxopentan-2-yl)-6,7,8,9-tetrahydro-5H-imidazo[1,5-a][1,4]diazepine-1-carboxamide] are greater than 10000 nM and “−”.
The like results for `CN1CCn2c(-c3ccccc3)nc(C(=O)N[C@H](C(=O)O)C(C)(C)C)c2C1` [Compound 281, (S)-3,3-dimethyl-2-(7-methyl-3-phenyl-5,6,7,8-tetrahydroimidazo[1,5-a]pyrazine-1-carboxamido)butanoic acid] were, in that order, greater than 10000 nM and “+”.
The like results for `CNC(=O)[C@@H](NC(=O)c1nc(-c2ccc(F)c(C(N)=O)c2)n2c1CN(C)CCC2)C(C)(C)C` [Compound 429, (S)-3-(3-carbamoyl-4-fluorophenyl)-N-(3,3-dimethyl-1-(methylamino)-1-oxobutan-2-yl)-8-methyl-6,7,8,9-tetrahydro-5H-imidazo[1,5-a][1,4]diazepine-1-carboxamide] were, in that order, greater than 10000 nM and “+”.
Consider `C[C@H](NC(=O)c1nc(-c2ccccc2)n2c1CNCC2)C(C)(C)C` [Compound 27, (s)-N-(3,3-dimethylbutan-2-yl)-3-phenyl-5,6,7,8-tetrahydroimidazo[1,5-a]pyrazine-1-carboxamide], for which the EC50 (in assay [1]; on rat CB2 receptor (rCB2)) was greater than 10000 nM each time.
`CNC(=O)[C@@H](NC(=O)c1nc(-c2cccc(NS(C)(=O)=O)c2)n2c1CN(C)CCC2)C(C)(C)C` [Compound 421, (S)-N-(3,3-dimethyl-1-(methylamino)-1-oxobutan-2-yl)-8-methyl-3-(3-(methylsulfonamido)phenyl)-6,7,8,9-tetrahydro-5H-imidazo[1,5-a][1,4]diazepine-1-carboxamide] had an EC50 in assay [1] greater than 10000 nM. The “+/− RCB2” value at rat CB2 receptor (rCB2) is listed as “−”.
The like results for `CNC(=O)[C@@H](NC(=O)c1nc(CCCC2CCCC2)n2c1CN(C)CCC2)C(C)(C)C` [Compound 494, (S)-3-(3-cyclopentylpropyl)-N-(3,3-dimethyl-1-(methylamino)-1-oxobutan-2-yl)-8-methyl-6,7,8,9-tetrahydro-5H-imidazo[1,5-a][1,4]diazepine-1-carboxamide] were, in that order, greater than 10000 nM and “−”.
As to `CNC(=O)[C@@H](NC(=O)c1nc(C(C)c2ccccc2)n2c1CN(C)CCC2)C(C)(C)C` (stereo partly drawn) [Compound 506, N-((S)-3,3-dimethyl-1-(methylamino)-1-oxobutan-2-yl)-8-methyl-3-(1-phenylethyl)-6,7,8,9-tetrahydro-5H-imidazo[1,5-a][1,4]diazepine-1-carboxamide], in assay [1], the “+/− HCB1” value is recorded as “+”. Besides, the “+/− RCB2” value on rat CB2 receptor (rCB2) is recorded as “+”.
As for `CNC(=O)[C@@H](NC(=O)c1nc(C2CCNCC2)n2c1CN(C)CCC2)C(C)(C)C` [Compound 503], the “+/− HCB1” value in assay [1] was “+”. The “+/− RCB2” value at rat CB2 receptor (rCB2) is listed as “+”.
Take `CN1CCCn2c(-c3ccccc3)nc(C(=O)N[C@H](C(=O)O)C(C)(C)C)c2C1` [Compound 471, (S)-3,3-dimethyl-2-(8-methyl-3-phenyl-6,7,8,9-tetrahydro-5H-imidazo[1,5-a][1,4]diazepine-1-carboxamido)butanoic acid]: the EC50 (in assay [1]; on rat CB2 receptor (rCB2)) was greater than 10000 nM each time.
In assay [1], `CNC(=O)[C@@H](NC(=O)c1nc(-c2ccc(F)c(Cl)c2)n2c1CN(C)CCC2)C(C)(C)C` [Compound 372, (S)-3-(3-chloro-4-fluorophenyl)-N-(3,3-dimethyl-1-(methylamino)-1-oxobutan-2-yl)-8-methyl-6,7,8,9-tetrahydro-5H-imidazo[1,5-a][1,4]diazepine-1-carboxamide] yielded an EC50 greater than 10000 nM. Further, the “+/− RCB2” value on rat CB2 receptor (rCB2) was “+”.
For the compound `CNC(=O)[C@@H](NC(=O)c1nc(-c2ccc3c(c2)OCO3)n2c1CN(C)CCC2)C(C)(C)C` [Compound 341, (S)-3-(benzo[d][1,3]dioxol-5-yl)-N-(3,3-dimethyl-1-(methylamino)-1-oxobutan-2-yl)-8-methyl-6,7,8,9-tetrahydro-5H-imidazo[1,5-a][1,4]diazepine-1-carboxamide], the EC50 in assay [1] was greater than 10000 nM. For the same compound, the “+/− RCB2” value at rat CB2 receptor (rCB2) is reported as “−”.
Consider `CNC(=O)[C@@H](NC(=O)c1nc(-c2cccc(C(=O)N(C)C)c2)n2c1CN(C)CCC2)C(C)(C)C` [Compound 412, (S)-N-(3,3-dimethyl-1-(methylamino)-1-oxobutan-2-yl)-3-(3-(dimethylcarbamoyl)phenyl)-8-methyl-6,7,8,9-tetrahydro-5H-imidazo[1,5-a][1,4]diazepine-1-carboxamide], for which the EC50 (in assay [1]; on rat CB2 receptor (rCB2)) was greater than 10000 nM each time.
Consider `CNC(=O)[C@@H](NC(=O)c1nc(-c2ccc(C(=O)OC)cc2F)n2c1CN(C)CCC2)C(C)(C)C` [Compound 387, (S)-methyl 4-(1-(3,3-dimethyl-1-(methylamino)-1-oxobutan-2-ylcarbamoyl)-8-methyl-6,7,8,9-tetrahydro-5H-imidazo[1,5-a][1,4]diazepin-3-yl)-3-fluorobenzoate], for which the EC50 (in assay [1]; at rat CB2 receptor (rCB2)) was greater than 10000 nM in each case.
